The values that follow come from ChEMBL document CHEMBL1938312, “Design and combinatorial synthesis of a novel kinase-focused library using click chemistry-based fragment assembly” (Bioorg Med Chem Lett, 2012).

Calls of active or inactive are those of the source. The calls are words filed in the database; no cut-off is given here.

Experiment [1] concerns the target Tyrosine-protein kinase CSK (Homo sapiens) (UniProt P41240). Nature of the experiment: Inhibition of CSK at 10 uM by colorimetric analysis.
Experiment [2] deals with T1, Ephrin type-B receptor 4 (Homo sapiens) (UniProt P54760).
T1 sequence (whole entry): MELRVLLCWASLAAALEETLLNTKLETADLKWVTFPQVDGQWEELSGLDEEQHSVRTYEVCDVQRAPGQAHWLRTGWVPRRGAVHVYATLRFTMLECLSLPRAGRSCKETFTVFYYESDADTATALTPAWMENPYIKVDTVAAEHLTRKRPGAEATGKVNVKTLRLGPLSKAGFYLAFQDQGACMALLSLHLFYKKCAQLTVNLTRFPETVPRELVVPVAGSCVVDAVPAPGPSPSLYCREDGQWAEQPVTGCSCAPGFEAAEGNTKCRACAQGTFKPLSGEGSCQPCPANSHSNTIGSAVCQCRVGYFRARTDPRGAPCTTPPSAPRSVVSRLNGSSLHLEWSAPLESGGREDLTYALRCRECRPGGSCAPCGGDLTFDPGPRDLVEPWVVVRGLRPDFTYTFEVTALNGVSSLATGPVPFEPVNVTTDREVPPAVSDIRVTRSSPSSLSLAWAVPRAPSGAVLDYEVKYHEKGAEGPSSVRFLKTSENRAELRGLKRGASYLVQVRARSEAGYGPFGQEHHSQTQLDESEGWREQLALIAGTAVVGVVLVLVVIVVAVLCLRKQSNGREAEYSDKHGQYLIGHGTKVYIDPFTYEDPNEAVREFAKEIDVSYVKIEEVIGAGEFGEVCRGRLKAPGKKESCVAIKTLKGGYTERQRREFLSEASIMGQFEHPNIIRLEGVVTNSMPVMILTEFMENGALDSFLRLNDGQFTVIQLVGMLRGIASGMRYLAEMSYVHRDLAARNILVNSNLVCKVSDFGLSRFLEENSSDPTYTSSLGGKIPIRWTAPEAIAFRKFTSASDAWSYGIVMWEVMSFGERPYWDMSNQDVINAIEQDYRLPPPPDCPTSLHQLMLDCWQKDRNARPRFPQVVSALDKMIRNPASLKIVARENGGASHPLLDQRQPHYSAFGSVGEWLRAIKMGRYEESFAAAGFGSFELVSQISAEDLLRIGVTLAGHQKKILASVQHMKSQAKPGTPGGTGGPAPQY
As to the kind of experiment: Inhibition of EPHB4 at 10 uM by colorimetric analysis.

The target of experiment [3] is Receptor-type tyrosine-protein kinase FLT3 (Homo sapiens) (UniProt P36888). As to the kind of experiment: Inhibition of FLT3 at 10 uM by colorimetric analysis.
Chain of Receptor-type tyrosine-protein kinase FLT3 (Homo sapiens) (P36888 whole entry): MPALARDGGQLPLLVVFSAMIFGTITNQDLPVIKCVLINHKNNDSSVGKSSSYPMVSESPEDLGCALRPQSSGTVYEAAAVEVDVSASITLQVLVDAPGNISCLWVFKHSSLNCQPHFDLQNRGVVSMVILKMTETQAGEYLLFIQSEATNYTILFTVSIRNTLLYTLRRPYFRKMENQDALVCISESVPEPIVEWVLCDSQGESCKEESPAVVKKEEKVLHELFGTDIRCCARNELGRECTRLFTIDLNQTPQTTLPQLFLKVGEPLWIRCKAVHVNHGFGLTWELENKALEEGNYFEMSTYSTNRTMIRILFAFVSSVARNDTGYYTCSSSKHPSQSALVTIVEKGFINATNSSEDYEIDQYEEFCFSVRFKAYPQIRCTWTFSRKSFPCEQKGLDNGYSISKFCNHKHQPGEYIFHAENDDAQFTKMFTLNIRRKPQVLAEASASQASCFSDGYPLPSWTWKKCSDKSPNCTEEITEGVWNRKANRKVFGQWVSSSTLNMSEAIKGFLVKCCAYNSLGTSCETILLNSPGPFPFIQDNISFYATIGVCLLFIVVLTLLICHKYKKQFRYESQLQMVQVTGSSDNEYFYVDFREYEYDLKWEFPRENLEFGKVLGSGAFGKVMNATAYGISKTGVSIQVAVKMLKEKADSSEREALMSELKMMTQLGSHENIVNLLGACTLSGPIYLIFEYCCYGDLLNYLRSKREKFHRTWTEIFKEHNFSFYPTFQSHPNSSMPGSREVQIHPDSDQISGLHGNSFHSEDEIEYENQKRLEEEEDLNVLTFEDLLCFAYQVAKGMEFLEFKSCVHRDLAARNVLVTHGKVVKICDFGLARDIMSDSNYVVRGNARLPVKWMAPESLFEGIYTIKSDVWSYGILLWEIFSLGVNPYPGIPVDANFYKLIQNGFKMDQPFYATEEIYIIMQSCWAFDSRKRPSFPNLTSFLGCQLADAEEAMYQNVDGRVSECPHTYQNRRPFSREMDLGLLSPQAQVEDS
The target in experiment [4] is High affinity nerve growth factor receptor (Homo sapiens) (UniProt P04629). Nature of the experiment: Inhibition of TRKA at 10 uM by colorimetric analysis.
Chain of High affinity nerve growth factor receptor (Homo sapiens) (P04629 33-796 limits assumed): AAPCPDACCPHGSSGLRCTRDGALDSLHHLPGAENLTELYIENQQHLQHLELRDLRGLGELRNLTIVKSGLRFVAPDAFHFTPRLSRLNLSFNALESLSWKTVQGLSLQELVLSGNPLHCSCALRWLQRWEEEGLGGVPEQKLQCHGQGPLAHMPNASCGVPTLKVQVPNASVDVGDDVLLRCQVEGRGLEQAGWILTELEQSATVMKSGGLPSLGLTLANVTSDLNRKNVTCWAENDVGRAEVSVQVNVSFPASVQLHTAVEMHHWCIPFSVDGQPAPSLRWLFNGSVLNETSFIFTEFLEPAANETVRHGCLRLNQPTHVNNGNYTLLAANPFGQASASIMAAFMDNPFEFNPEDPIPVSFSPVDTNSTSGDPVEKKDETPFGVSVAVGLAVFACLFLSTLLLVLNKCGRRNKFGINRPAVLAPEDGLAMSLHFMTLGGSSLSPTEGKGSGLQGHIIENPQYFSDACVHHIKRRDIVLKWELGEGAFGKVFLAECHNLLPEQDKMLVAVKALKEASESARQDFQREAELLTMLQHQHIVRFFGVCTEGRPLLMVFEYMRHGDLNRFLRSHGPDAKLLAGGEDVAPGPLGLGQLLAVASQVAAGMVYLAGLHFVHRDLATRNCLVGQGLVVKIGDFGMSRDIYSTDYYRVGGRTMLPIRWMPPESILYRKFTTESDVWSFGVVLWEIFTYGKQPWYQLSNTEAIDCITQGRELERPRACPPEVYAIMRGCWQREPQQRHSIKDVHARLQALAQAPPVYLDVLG
Experiment [5] deals with RAC-alpha serine/threonine-protein kinase (Homo sapiens) (UniProt P31749). Nature of the experiment: Inhibition of AKT1 at 10 uM by colorimetric analysis.
Chain of RAC-alpha serine/threonine-protein kinase (Homo sapiens) (P31749 whole entry): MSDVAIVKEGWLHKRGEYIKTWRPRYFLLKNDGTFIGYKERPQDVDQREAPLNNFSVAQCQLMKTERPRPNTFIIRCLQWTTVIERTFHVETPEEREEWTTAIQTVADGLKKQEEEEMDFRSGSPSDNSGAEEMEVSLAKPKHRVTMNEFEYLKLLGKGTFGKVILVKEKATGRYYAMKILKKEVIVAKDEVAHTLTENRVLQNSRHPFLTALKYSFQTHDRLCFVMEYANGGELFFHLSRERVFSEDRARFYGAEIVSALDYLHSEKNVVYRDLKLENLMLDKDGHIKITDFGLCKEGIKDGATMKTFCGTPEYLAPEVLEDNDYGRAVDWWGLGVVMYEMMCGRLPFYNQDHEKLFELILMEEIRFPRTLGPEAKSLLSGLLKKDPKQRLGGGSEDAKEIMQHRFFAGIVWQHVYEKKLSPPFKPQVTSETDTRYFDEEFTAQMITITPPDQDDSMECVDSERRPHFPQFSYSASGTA
Experiment [6] deals with T2, 5'-AMP-activated protein kinase subunit beta-1 (Homo sapiens) (UniProt Q9Y478).
T2 sequence (whole entry): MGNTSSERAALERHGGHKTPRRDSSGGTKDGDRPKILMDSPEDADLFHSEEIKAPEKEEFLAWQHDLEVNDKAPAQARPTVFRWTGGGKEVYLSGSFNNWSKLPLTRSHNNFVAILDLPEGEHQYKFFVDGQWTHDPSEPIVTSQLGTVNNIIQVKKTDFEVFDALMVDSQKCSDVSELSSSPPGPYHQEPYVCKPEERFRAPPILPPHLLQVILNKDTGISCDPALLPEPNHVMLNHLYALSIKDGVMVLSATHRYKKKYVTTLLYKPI
As to the kind of experiment: Inhibition of AMPKbeta1 at 10 uM by colorimetric analysis.

The target in experiment [7] is T3, Aurora kinase A (Homo sapiens) (UniProt O14965).
T3 sequence (whole entry): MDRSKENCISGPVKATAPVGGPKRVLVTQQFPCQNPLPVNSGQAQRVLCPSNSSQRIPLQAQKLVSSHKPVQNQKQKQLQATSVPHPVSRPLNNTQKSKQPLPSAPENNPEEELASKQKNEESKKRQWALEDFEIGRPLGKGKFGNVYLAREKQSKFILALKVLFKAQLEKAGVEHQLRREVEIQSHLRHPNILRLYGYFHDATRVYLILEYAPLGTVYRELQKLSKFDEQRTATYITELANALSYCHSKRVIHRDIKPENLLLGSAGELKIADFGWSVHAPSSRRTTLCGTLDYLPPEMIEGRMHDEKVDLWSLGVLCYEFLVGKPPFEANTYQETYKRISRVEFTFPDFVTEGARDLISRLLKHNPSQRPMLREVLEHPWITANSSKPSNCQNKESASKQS
As to the kind of experiment: Inhibition of Aurora A at 10 uM by colorimetric analysis.

Experiment [8] has as its target Glycogen synthase kinase-3 beta (Homo sapiens, UniProt P49841). Nature of the experiment: Inhibition of GSK3-beta at 10 uM by colorimetric analysis.
The target of experiment [9] is T4, Inhibitor of nuclear factor kappa-B kinase subunit beta (Homo sapiens) (UniProt O14920).
T4 sequence (whole entry): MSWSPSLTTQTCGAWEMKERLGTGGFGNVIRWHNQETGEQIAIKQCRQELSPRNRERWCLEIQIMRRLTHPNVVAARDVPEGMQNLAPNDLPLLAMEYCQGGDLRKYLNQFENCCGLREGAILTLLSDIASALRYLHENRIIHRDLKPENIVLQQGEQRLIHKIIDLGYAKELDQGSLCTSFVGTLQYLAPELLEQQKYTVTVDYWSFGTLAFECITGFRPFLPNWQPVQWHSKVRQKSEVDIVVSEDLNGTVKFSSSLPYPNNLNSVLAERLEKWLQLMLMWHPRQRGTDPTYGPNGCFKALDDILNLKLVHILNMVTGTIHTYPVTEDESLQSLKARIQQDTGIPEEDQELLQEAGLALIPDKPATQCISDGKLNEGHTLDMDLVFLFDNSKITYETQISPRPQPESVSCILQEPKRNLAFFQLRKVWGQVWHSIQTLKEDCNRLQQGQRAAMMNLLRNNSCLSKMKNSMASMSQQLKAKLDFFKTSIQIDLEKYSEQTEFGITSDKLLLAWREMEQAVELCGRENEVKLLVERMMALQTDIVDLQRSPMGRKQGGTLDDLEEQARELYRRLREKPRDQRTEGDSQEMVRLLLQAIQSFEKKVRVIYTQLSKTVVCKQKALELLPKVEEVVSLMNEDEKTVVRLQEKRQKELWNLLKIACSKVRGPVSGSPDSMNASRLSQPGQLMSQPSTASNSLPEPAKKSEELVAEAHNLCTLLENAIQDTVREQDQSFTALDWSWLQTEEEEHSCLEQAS
As to the kind of experiment: Inhibition of IKK-beta at 10 uM by colorimetric analysis.

Experiment [10] concerns the target Serine/threonine-protein kinase pim-1 (Homo sapiens) (UniProt P11309). Nature of the experiment: Inhibition of PIM1 at 10 uM by colorimetric analysis.
Experiment [11] addresses cAMP-dependent protein kinase catalytic subunit alpha (Homo sapiens) (UniProt P17612). Nature of the experiment: Inhibition of PKACa at 10 uM by colorimetric analysis.

Chain of Tyrosine-protein kinase CSK (Homo sapiens) (P41240 2-450 limits assumed): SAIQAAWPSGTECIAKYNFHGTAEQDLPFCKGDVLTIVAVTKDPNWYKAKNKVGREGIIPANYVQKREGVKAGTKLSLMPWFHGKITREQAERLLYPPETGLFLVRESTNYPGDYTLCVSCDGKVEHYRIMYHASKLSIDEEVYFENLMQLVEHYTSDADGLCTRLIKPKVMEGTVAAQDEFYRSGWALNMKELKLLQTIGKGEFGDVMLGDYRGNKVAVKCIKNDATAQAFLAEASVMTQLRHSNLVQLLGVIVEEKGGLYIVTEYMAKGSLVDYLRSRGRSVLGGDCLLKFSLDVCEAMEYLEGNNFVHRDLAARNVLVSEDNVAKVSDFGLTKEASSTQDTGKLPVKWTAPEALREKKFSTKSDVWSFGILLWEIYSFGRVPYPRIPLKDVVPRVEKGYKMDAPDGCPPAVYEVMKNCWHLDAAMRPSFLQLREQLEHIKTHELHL
Chain of Serine/threonine-protein kinase pim-1 (Homo sapiens) (P11309 whole entry, looked up): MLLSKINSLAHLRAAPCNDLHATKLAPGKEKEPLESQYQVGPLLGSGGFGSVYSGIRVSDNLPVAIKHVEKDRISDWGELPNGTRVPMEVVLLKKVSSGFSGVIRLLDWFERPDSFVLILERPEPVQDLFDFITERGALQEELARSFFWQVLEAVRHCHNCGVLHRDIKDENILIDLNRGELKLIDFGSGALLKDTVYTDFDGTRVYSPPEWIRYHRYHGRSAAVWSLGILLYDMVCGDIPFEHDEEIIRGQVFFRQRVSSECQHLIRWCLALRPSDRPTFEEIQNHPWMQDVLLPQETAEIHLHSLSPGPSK
Chain of Glycogen synthase kinase-3 beta (P49841 whole entry, looked up): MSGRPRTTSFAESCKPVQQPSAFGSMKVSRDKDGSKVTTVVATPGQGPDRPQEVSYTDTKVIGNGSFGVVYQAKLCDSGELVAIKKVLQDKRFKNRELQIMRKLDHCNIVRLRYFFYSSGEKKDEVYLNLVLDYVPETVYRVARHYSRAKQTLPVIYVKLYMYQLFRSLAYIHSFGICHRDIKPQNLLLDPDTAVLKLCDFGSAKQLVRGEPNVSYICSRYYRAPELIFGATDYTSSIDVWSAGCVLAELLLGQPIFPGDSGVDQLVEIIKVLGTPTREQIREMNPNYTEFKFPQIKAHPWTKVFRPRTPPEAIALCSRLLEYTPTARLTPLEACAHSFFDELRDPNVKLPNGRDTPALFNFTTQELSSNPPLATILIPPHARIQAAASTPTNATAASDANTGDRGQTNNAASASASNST

With `Clc1ccc(-n2nncc2-c2ccncc2)cc1`, the inhibition result in [1], in experiment [2] and in experiment [4] was “inactive” throughout. Also, the inhibition entry in [3], in [5], in [6], in [7], in [8] and in [9] was “Active” each time. Also, the inhibition result in experiment [10] and in experiment [11] was “Active” in each case.

For `Clc1ccc(-n2cc(-c3ccncc3)nn2)cc1`, the inhibition result in [1], in experiment [2] and in experiment [4] was “inactive” each time. The inhibition entry in experiment [3], in [5], in experiment [6], in [7], in experiment [8] and in experiment [9] was “Active” each time. For the same molecule, the inhibition result in [10] and in experiment [11] was “Active” throughout.

`Clc1cccc(-n2cc(-c3ccncc3)nn2)c1`: the inhibition entry in experiment [1], in experiment [2] and in experiment [4] was “inactive” throughout. Further, the inhibition entry in [3], in experiment [5], in experiment [6], in experiment [7], in [8] and in experiment [9] was “Active” each time. Besides, the inhibition result in experiment [10] and in experiment [11] was “Active” each time.

As to `Clc1cccc(-n2nncc2-c2ccncc2)c1`, the inhibition entry in experiment [1], in [2] and in [4] was “inactive” in each case. The inhibition result in [3], in experiment [5], in experiment [6], in experiment [7], in experiment [8] and in experiment [9] was “Active” throughout. Also, the inhibition entry in [10] and in experiment [11] was “Active” throughout.
